Assay results from patent US20040033614A1, “Detection of oxidative intermediates in biological samples” (priority 2002, published 2004).

Columns and labels:
[1] = tested on: plasma MDA; experiment: Plasma malondialdehyde by fluorometric HPLC, cross-over trial of add-on losartan; format: in vivo, patients with chronic kidney disease; settings: losartan 50 mg/d for 4 weeks added to lisinopril 40 mg/d
Procedure: (§1) Sample derivatization was carried out in 2 mL capacity plastic centrifuge tubes fitted with screw-on caps. To a 50 μl aliquot of sample or TEP standard, 50 μl BHT solution, 400 μl H3PO4 solution, and 100 μl TBA solution were added. Sample tubes were capped tightly, vortexed and then heated for 1 hour in a 100° C. dry bath incubator. Following heat derivatization, samples were placed in an ice-water (0° C.) water bath for 5 minutes to cool. 250 μl n-butanol was subsequently added to each vial for extracting the MDA-TBA complex. Tubes were vortexed for 5 minutes and then centrifuged for 3 minutes at 14,000× min^−1 to separate the two phases. Aliquots of 100 μl were removed from the n-butanol layer of each sample and placed in HPLC vials for analysis.
(§2) The chromatographic system consisted of a Hewlett-Packard Chromatographic Series 1100 autosampler and isocratic pump and Hewlett-Packard model 1046A programmable fluorescence detector (Palo Alto, Calif., USA). The autosampler was programmed to inject 10 μl of each sample at 1-minute intervals. The pump flow rate was 1.0 ml/min with the mobile phase comprised of methanol-buffer (40:60, v/v). […] The fluorescence detector was set at an excitation wavelength of 515 nm and emission wavelength of 553 nm. […] Peak areas were determined using a ChromJet integrator (Thermo Separation Products, San Jose, Calif.). […]

[2] = tested on: plasma protein carbonyl; experiment: Total plasma protein carbonyl measurement by size exclusion HPLC; format: in vivo, patients with chronic kidney disease; settings: direct measurement of protein carbonylation in plasma
Procedure: (§3) The protocol design of this study was reported in detail previously (15). Briefly, patients between the ages of 18 to 80 years with proteinuria of ≧1 g/d, hypertension defined as mean arterial pressure ≧97 mm Hg, serum potassium of ≦5.5 mEq/L and on lisinopril therapy of 40 mg/d for >3 months were eligible for the study. Patients who had previously received angiotensin receptor blockers or with estimated creatine clearance of <30 ml/min were excluded.
(§4) The study was a two period, cross-over, randomized controlled trial. Patients received either a sequence of losartan 50 mg/d for 4 weeks, a two week washout, and then placebo for 4 weeks or placebo for 4 weeks, a two week washout, and then losartan 50 mg/d for 4 weeks. Lisinopril 40 mg/d along with other anti-hypertensive therapy were continued throughout the trial. 24-hour urine was collected for protein, sodium, urea and creatinine, urinary carbonylated protein, malondialdehyde and monocyte chemotactic protein-l (MCP1) measurements. As the standard therapy for patients with proteinuria and renal failure includes ACE-inhibitors, ACE-inhibitors were not removed from any patient enrolled in the study.

[3] = tested on: urinary albumin and total urinary protein oxidation; experiment: Carbonylation of urine proteins by Western blotting (DNP derivatization, OxyBlot); format: in vivo, patients with chronic kidney disease
Procedure: as §3, §4
Oxidation of plasma and urine proteins was measured by Western blot analysis according to the method of Shacter et al. Total protein was determined using the Vitros Dry Slide system (Ortho-Clinical Diagnostics, Rochester, N.Y.). Plasma was diluted 1:25 (v:v) with phosphate-buffered saline (PBS), and one aliquot of the diluted sample was derivatized and another prepared as an underivatized control using the OxyBlot protein oxidation detection kit (Intergen, Purchase, N.Y.). […] Derivatized and underivatized plasma or urine samples were loaded on electrophoresis gels in volumes calculated to give 5 μg of protein per sample, and the samples were electrophoresed according to the method of Laemmli on 4 to 20% gradient SDS-PAGE (Bio-Rad, Hercules, Calif.). […] Bands were visualized with chemiluminescent chemicals and captured on film at two exposure times (30 seconds and 1 minute). Blots were scanned on a Hewlett-Packard ScanJet 5200C scanner (Hewlett-Packard, Palo Alto, Calif.) and analyzed for band area using Un-Scan-It Gel software (Silk Scientific, Orem, Utah).
Samples from individual patients before and after losartan therapy, including derivatized and underivatized controls, were analyzed on a single Western blot. This ensured that the response to losartan therapy was compared under the same analytical conditions. […] Density of individual albumin bands and total protein in each sample lane was determined using the same size section of each scanned blot. […] The uniform window size and analysis box ensured that data were being analyzed consistently from band to band and from blot to blot. […]

[4] = Blood pressure and proteinuria in the add-on losartan trial; format: in vivo, patients with chronic kidney disease; settings: losartan 50 mg/d added to lisinopril 40 mg/d; as reported previously (15)
Procedure: The protocol design of this study was reported in detail previously (15). Briefly, patients between the ages of 18 to 80 years with proteinuria of ≧1 g/d, hypertension defined as mean arterial pressure ≧97 mm Hg, serum potassium of ≦5.5 mEq/L and on lisinopril therapy of 40 mg/d for >3 months were eligible for the study. […] The study was a two period, cross-over, randomized controlled trial. Patients received either a sequence of losartan 50 mg/d for 4 weeks, a two week washout, and then placebo for 4 weeks or placebo for 4 weeks, a two week washout, and then losartan 50 mg/d for 4 weeks. Lisinopril 40 mg/d along with other anti-hypertensive therapy were continued throughout the trial. […] Serum chemistries, complete blood counts, urine protein, electrolytes, urea and creatinine were measured in a hospital laboratory using routine methods. Specifically, creatinine was measured on a Hitachi 911 analyzer (Boehringer Mannheim) using the alkaline picrate method and urine protein was measured using a turbidometric method using benzethonium chloride read at 550 nm (Roche Diagnostics Corporation, Indianapolis, Ind.). Ambulatory blood pressure was measured with SpaceLabs 90207 monitors and glomerular filtration rate measurements with continuous infusion of iothalamate as previously reported (15).

[5] = tested on: plasma albumin and total plasma protein oxidation; experiment: Carbonylation of plasma proteins by Western blotting (DNP derivatization, OxyBlot); format: in vivo, patients with chronic kidney disease; settings: before vs after losartan 50 mg/d for 4 weeks
Procedure: as §3
The study was a two period, cross-over, randomized controlled trial. […]
Oxidation of plasma and urine proteins was measured by Western blot analysis according to the method of Shacter et al. Total protein was determined using the Vitros Dry Slide system (Ortho-Clinical Diagnostics, Rochester, N.Y.). […] Derivatized and underivatized plasma or urine samples were loaded on electrophoresis gels in volumes calculated to give 5 μg of protein per sample, and the samples were electrophoresed according to the method of Laemmli on 4 to 20% gradient SDS-PAGE (Bio-Rad, Hercules, Calif.). […] Blots were scanned on a Hewlett-Packard ScanJet 5200C scanner (Hewlett-Packard, Palo Alto, Calif.) and analyzed for band area using Un-Scan-It Gel software (Silk Scientific, Orem, Utah).
Samples from individual patients before and after losartan therapy, including derivatized and underivatized controls, were analyzed on a single Western blot. […]

[6] = tested on: urinary MDA; experiment: Urinary malondialdehyde by fluorometric HPLC, cross-over trial of add-on losartan; format: in vivo, patients with chronic kidney disease; settings: losartan 50 mg/d for 4 weeks added to lisinopril 40 mg/d; significantly decreased from 4.75±3.23 before therapy; mean ± SD, 16 patients
Procedure: as §1, §2

[7] = tested on: superoxide dismutase and glutathione peroxidase; settings: 5/6th nephrectomized rats treated with enalapril; reference 26; cited from earlier work

Row | Structure (SMILES) | plasma MDA, change in response to losartan therapy [1] | carbonyl concentration from oxidized proteins in plasma, change with losartan [2] | total urinary protein oxidation in excess of plasma after losartan therapy ([3]; after treatment, p=0.029, 99% higher before therapy) [%] | urinary albumin oxidation compared to plasma albumin after losartan ([3]; after treatment, p=0.45, 71% higher before therapy) | total urinary protein oxidation, change with losartan ([3]; before vs after losartan 50 mg/d for 4 weeks) | oxidative damage to urinary albumin ([3]; losartan 50 mg/d for 4 weeks added to lisinopril 40 mg/d, before vs after, proteinuria not reduced) | blood pressure, change in response to add-on losartan therapy [4] | proteinuria, change in response to add-on losartan therapy [4] | plasma albumin oxidation, change with losartan [5] | plasma protein oxidation, change with losartan [5] | urinary MDA levels after losartan therapy [6] [μmol/g creatinine] | antioxidant enzymes in the kidney (superoxide dismutase, glutathione peroxidase) [7]
1 | CCCCc1nc(Cl)c(CO)n1Cc1ccc(-c2ccccc2-c2nn[nH]n2)cc1 [losartan] | Neither plasma MDA or plasma oxidized proteins (FIGS. 6B and 7) changed | remained unchanged | 69 | no more oxidized | did not reach statistical significance | reduced | no change | no change | remained unchanged | remained unchanged | 3.39±2.17 | –
2 | CCOC(=O)[C@H](CCc1ccccc1)N[C@@H](C)C(=O)N1CCC[C@H]1C(=O)O [enalapril] | – | – | – | – | – | – | – | – | – | – | – | increased
